Assay [1] addresses T1, human glucagon receptor (Homo sapiens (Human), UniProt P47871). Put plainly: Human Glucagon SPA Assay (binding of [125I]Glucagon-Cex). The note with it: membrane from chem-1 cells stably transfected with the human glucagon receptor, Ki by Cheng-Prusoff equation.
In assay [2] the target is T1, human glucagon receptor. Put plainly: Glucagon cAMP Assay (Cisbio cAMP detection). Type of assay: cell-based. The note with it: CHOK1 cells stably transfected with the human glucagon receptor; block of glucagon induced cAMP production; Kb by modified Cheng-Prusoff equation. A general note: cAMP levels reflect the balance of adenylyl cyclase and phosphodiesterase activity.

Structures are written as SMILES.

Here are results for 15 molecules from patent US8507533B2, “Glucagon receptor modulators” (Pfizer Inc., priority 2011, dated 2013).

T1 sequence (P47871 26-477): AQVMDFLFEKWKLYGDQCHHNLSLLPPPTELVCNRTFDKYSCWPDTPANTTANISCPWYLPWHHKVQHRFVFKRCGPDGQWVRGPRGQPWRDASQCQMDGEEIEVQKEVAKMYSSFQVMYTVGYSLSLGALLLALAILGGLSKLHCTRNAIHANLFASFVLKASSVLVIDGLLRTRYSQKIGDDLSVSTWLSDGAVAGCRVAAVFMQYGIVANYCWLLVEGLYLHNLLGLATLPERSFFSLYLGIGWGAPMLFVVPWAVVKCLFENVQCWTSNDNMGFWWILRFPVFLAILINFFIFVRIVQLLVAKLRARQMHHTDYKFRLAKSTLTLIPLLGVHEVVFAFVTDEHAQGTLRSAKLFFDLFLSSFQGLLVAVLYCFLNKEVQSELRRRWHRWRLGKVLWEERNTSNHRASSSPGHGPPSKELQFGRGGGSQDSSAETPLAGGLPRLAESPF

At human glucagon receptor [1], `Cc1cc(OC(c2ccc(C(=O)NCCC(=O)O)cc2)C2CCCC2)cc(C)c1-n1cnc(C(F)(F)F)c1` (stereo not drawn) [Example 131, (+\−)-3-(4-(cyclopentyl(3,5-dimethyl-4-(4-(trifluoromethyl)-1H-imidazol-1-yl)phenoxy)methyl)benzamido)propanoic acid] had a Ki of 51 nM. Also, the Kb at human glucagon receptor [2] was 247 nM.

On human glucagon receptor [1], `CCCC(Nc1ccc(-n2cc(-c3ccccc3)cn2)nc1)c1ccc(C(=O)NCCC(=O)O)cn1` (stereo not drawn) [Example 132, (+\−)-3-(6-(1-(6-(4-phenyl-1H-pyrazol-1-yl)pyridin-3-ylamino)butyl)nicotinamido)propanoic acid] yielded a Ki of 132 nM. Moreover, on human glucagon receptor [2], the Kb turned out to be 153 nM.

For the molecule `CCCC(Oc1ccc(-n2cc3cccc(Cl)c3n2)cc1)c1ccc(C(=O)NCCC(=O)O)cc1` (stereo not drawn) [Example 139, (+\−)-3-(4-(1-(4-(7-chloro-2H-indazol-2-yl)phenoxy)butyl)benzamido)propanoic acid], the Ki at human glucagon receptor [1] worked out at 354 nM. On human glucagon receptor [2], the Kb came to 147 nM.

As for `CCCC(Oc1ccc(-n2cc3cc(Cl)ccc3n2)cc1)c1ccc(C(=O)NCCC(=O)O)cc1` (stereo not drawn) [Example 140, (+\−)-3-(4-(1-(4-(5-chloro-2H-indazol-2-yl)phenoxy)butyl)benzamido)propanoic acid], the Ki on human glucagon receptor [1] was 62.8 nM. Besides, the Kb on human glucagon receptor [2] is 154 nM.

In the case of `CCCC(Oc1cc(C)c(-n2cnc(C(F)(F)F)c2)c(C)c1)c1ccc(C(=O)NCCC(=O)O)cc1` (stereo not drawn) [Example 141, (+\−)-3-(4-(1-(3,5-dimethyl-4-(4-(trifluoromethyl)-1H-imidazol-1-yl)phenoxy)butyl)benzamido)propanoic acid], the affinity at human glucagon receptor [1], expressed as Ki, was 89.5 nM. On human glucagon receptor [2], this molecule had a Kb of 586 nM.

With `CCCC(Oc1cc(C)c(-n2cc(C3CC3)cn2)c(C)c1)c1ccc(C(=O)NCCC(=O)O)cc1` (stereo not drawn) [Example 144, (+\−)-3-(4-(1-(4-(4-cyclopropyl-1H-pyrazol-1-yl)-3,5-dimethylphenoxy)butyl)benzamido)propanoic acid], the affinity at human glucagon receptor [1], expressed as Ki, was 62.6 nM. Moreover, the Kb on human glucagon receptor [2] was 174 nM.

`CCCC(Oc1cc(C)c(-n2cc(C(F)(F)F)nn2)c(C)c1)c1ccc(C(=O)NCCC(=O)O)cc1` (stereo not drawn) [Example 148, (+\−)-3-(4-(1-(3,5-dimethyl-4-(4-(trifluoromethyl)-1H-1,2,3-triazol-1-yl)phenoxy)butyl)benzamido)propanoic acid] showed a Ki on human glucagon receptor [1] of 125 nM. At human glucagon receptor [2], the Kb is 423 nM.

On to `CCCC(Oc1ccc(-n2cc(C(F)(F)F)cn2)cc1C)c1ccc(C(=O)NCCC(=O)O)cc1` (stereo not drawn) [Example 159, 3-(4-(1-(2-methyl-4-(4-(trifluoromethyl)-1H-pyrazol-1-yl)phenoxy)butyl)benzamido)propanoic acid], for which the Ki at human glucagon receptor [1] is 315 nM. On human glucagon receptor [2], this molecule showed a Kb of 730 nM.

`Cc1cc([C@@H](CC(C)C)Nc2ccc(C(=O)NCCC(=O)O)cn2)cc(C)c1-n1cc(C(F)(F)F)cn1` [Example 168, (R)-3-(6-((1-(3,5-dimethyl-4-(4-(trifluoromethyl)-1H-pyrazol-1-yl)phenyl)-3-methylbutyl)amino)nicotinamido)propanoic acid] registered a Ki at human glucagon receptor [1] of 27.4 nM. In addition, the Kb at human glucagon receptor [2] stood at 185 nM.

Consider `Cc1cc([C@H](CC(C)C)Nc2ccc(C(=O)NCCC(=O)O)cn2)cc(C)c1-n1cc(C(F)(F)F)cn1` [Example 169, (S)-3-(6-((1-(3,5-dimethyl-4-(4-(trifluoromethyl)-1H-pyrazol-1-yl)phenyl)-3-methylbutyl)amino)nicotinamido)propanoic acid], for which, at human glucagon receptor [1], the Ki is 193 nM. In addition, the Kb on human glucagon receptor [2] came to 1150 nM.

On to `CCC[C@H](Oc1cc(C)c(-n2cc3ccccc3n2)c(C)c1)c1ccc(C(=O)NCCC(=O)O)cc1` [Example 187, (S)-3-(4-(1-(4-(2H-indazol-2-yl)-3,5-dimethylphenoxy)butyl)benzamido)propanoic acid], for which, on human glucagon receptor [1], the inhibitory constant (Ki) amounted to 47.8 nM. Moreover, on human glucagon receptor [2], the Kb turned out to be 167 nM.

With `CC1(C)CC(C(Nc2ccc(-n3cnc(C(F)(F)F)c3)nc2)c2ccc(C(=O)NCCC(=O)O)cc2)C1` (stereo not drawn) [Example 188, (+\−)-3-(4-((3,3-dimethylcyclobutyl)(6-(4-(trifluoromethyl)-1H-imidazol-1-yl)pyridin-3-ylamino)methyl)benzamido)propanoic acid], the Ki at human glucagon receptor [1] worked out at 42.2 nM. Further, the Kb on human glucagon receptor [2] stood at 106 nM.

Take `CCCC(Oc1cc(C)c(-n2cc3ccccc3n2)c(C)c1)c1ccc(C(=O)NCCC(=O)O)cc1` (stereo not drawn) [Example 189, (+\−)-3-(4-(1-(4-(2H-indazol-2-yl)-3,5-dimethylphenoxy)butyl)benzamido)propanoic acid]: the Ki on human glucagon receptor [1] was 109 nM. The molecule further showed a Kb at human glucagon receptor [2] of 370 nM.

For `CCCC(Nc1ccc(C(=O)NCCC(=O)O)cn1)c1ccc(-n2cc(C(F)(F)F)cn2)nc1` (stereo not drawn) [Example 190, (+\−)-3-(6-(1-(6-(4-(trifluoromethyl)-1H-pyrazol-1-yl)pyridin-3-yl)butylamino)nicotinamido)propanoic acid], the affinity at human glucagon receptor [1] corresponds to a Ki of 399 nM. Besides, at human glucagon receptor [2], the Kb came to 978 nM.

Take `O=C(O)CCNC(=O)c1ccc(C(Nc2cnc(-n3cnc(C(F)(F)F)c3)nc2)C2CCCC2)cc1` (stereo not drawn) [Example 193, 3-(4-(cyclopentyl(2-(4-(trifluoromethyl)-1H-imidazol-1-yl)pyrimidin-5-ylamino)methyl)benzamido)propanoic acid]: the Ki on human glucagon receptor [1] was 44.7 nM. This molecule displayed a Kb at human glucagon receptor [2] of 84.1 nM.

What is called Ki is the dissociation constant of the complex between target and ligand, obtained from inhibition or displacement. Low readings indicate higher affinity, high ones lower affinity.
